Data reported in patent US8883410B2, “Method for determining the stability of organic methyleneamines in the presence of semicarbazide-sensitive amine oxidase” (Sanofi, priority 2007, dated 2014).

Molecular target: T1, human SSAO T1 (Gly27-Asn763), C-terminal 6xHIS tag (Homo sapiens, UniProt Q16853)
T1 construct: T1 (Gly27-Asn763) Representing the Enzyme Lacking the Membrane Anchoring Region; additional N-terminal Met (N); expressed in transfected cells; cell lysate
T1 sequence (Q16853 27-763): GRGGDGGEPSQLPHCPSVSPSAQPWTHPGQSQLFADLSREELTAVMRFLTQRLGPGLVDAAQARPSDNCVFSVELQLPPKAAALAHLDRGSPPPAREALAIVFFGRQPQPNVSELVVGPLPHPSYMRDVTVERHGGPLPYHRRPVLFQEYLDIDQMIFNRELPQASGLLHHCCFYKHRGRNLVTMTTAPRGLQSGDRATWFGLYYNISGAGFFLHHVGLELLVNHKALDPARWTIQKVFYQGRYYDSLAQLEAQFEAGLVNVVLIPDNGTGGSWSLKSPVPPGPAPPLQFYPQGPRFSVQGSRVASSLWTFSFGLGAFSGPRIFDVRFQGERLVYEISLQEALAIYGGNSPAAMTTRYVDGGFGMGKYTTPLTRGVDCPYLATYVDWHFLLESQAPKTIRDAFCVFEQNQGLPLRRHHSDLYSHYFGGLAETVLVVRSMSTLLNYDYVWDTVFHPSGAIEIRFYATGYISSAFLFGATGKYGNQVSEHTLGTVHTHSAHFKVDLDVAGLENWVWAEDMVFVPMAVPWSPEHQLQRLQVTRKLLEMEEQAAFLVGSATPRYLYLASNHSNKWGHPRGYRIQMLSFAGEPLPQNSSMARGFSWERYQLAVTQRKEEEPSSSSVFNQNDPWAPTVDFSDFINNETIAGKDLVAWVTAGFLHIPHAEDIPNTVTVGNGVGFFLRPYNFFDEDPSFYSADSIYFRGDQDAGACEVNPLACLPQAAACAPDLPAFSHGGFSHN
Test: Benzylamine stability in lysate of cells expressing T1 SSAO with C-terminal 6xHIS tag, LC/MS/MS
Type: in vitro ADME
Procedure: 3) T1 (Gly27-Asn763) Representing the Enzyme Lacking the Membrane Anchoring Region:
The expression constructs were prepared by cloning these PCR products into the pCDNA5-FRT-To-DEST vector (Invitrogen, Gateway System™). The forward and reverse DNA sequence of each construct was confirmed including expressed sequences and at least 100 base pairs either side of this. Stable cell lines for Flp-In CHO, Flp-In CHO T-Rex, and Flp-In HEK 293 (Invitrogen, Flp-In system™) were generated using these 6 constructs according to manufacturer's instructions. Cells were co-transfected with the regulatory vector, pOG44, and each of the pCDNA5-FRT-To-DEST constructs using Lipfectamine (Invitrogen) according to manufacturer's instructions. Thus, 18 cell lines were generated: CHO Flp-In full-length SSAO; CHO Flp-In full-length SSAO with C-terminal 6×HIS tag; CHO Flp-In T1 SSAO; CHO Flp-In T1 SSAO with C-terminal 6×HIS tag; CHO Flp-In T2 SSAO; CHO Flp-In T2 SSAO with C-terminal 6×HIS tag; CHO T-Rex Flp-In full-length SSAO; CHO T-Rex Flp-In full-length SSAO with C-terminal 6×HIS tag; CHO T-Rex Flp-In T1 SSAO; CHO T-Rex Flp-In T1 SSAO with C-terminal 6×HIS tag; CHO T-Rex Flp-In T2 SSAO; CHO Flp-In T2 SSAO with C-terminal 6×HIS tag; HEK 293 Flp-In full-length SSAO; HEK 293 Flp-In full-length SSAO with C-terminal 6×HIS tag; HEK 293 Flp-In T1 SSAO; HEK 293 Flp-In T1 SSAO with C-terminal 6×HIS tag; HEK 293 Flp-In T2 SSAO; HEK 293 Flp-In T2 SSAO with C-terminal 6×HIS tag.
Adherent CHO cells were cultured at 37° C., 5% CO2 in media containing Ham's F12, 10% fetal bovine serum, 2 mM L-glutamine, 1% Penicillin/Streptomycin, 300 μM hygromycin B. Adherent HEK 293 cells were cultured at 37° C., 5% CO2 in D-MEM (high glucose), 10% fetal bovine serum, 2 mM L-glutamine, and 200 μM hygromycin B. Stable transformants were identified by loss of zeocin resistance. Once the cells were 80% confluent, SSAO expression was induced by the addition of Tetracycline to 1 μg/mL. Following 18 hours, the cells were harvested using a trypsin treatment of 3 minutes, at room temperature. Cells were washed 3 times in phosphate buffered saline before flash freezing in liquid nitrogen.
For the preparation of cell lysate for activity testing, frozen cell pellets were resuspended in lysate buffer containing 10 mM Tris-HCl (pH 7.2), 150 mM NaCl, 1.5 mM MgCl2, 1% v/v NP-40 and incubated for 15 minutes on ice. Lysate was cleared by centrifugation 800×g for 10 minutes, 4° C. and stored in aliquots at −80° C. until use. Proteins were determined using Pierce Coomassie Protein Reagent, according to manufacturer's instructions.
For each assay run, 1 mL of cell lysate (1.5 mg/mL protein) was mixed with benzylamine to 2000 ng/mL final concentration. At each corresponding time point, […] the incubation mixture was transferred to a microcentrifuge tube (1.7 mL) and mixed with 50 μL of acetonitrile. The tubes were vortex mixed briefly to ensure complete mixing and then centrifuged at 10,000×g for 5 minutes. The supernatant was removed and 50 μL was transferred to an autosampler vial and mixed with 50 μL of water before LC/MS/MS analysis. Benzylamine remaining in the lysate was analyzed with LC/MS/MS method.
LC/MS/MS analysis was performed with a PE Sciex API 3000 mass spectrometer under the following conditions listed below and in Tables 1 and 2: […]

Benzylamine Remaining (%) (CHO Flp-In T-Rex lysate, 0 min): 100% | Benzylamine Remaining (%) (CHO Flp-In T-Rex lysate, 10 min): 95% | Benzylamine Remaining (%) (CHO Flp-In T-Rex lysate, 2 h): 93% | Benzylamine Remaining (%) (CHO Flp-In lysate, 0 min): 100% | Benzylamine Remaining (%) (CHO Flp-In lysate, 10 min): 101% | Benzylamine Remaining (%) (CHO Flp-In lysate, 2 h): 98% | Benzylamine Remaining (%) (HEK293 lysate, 0 min): 100% | Benzylamine Remaining (%) (HEK293 lysate, 10 min): 111% | Benzylamine Remaining (%) (HEK293 lysate, 2 h): 103%
Structure (SMILES): NCc1ccccc1 [Benzylamine]
